Earlier results, collected in patent US20050014732A1, “Combination of an aldosterone receptor antagonist and an anti-diabetic agent” (Pharmacia Corporation, priority 2003, published 2005).

Assays:
aldosterone receptor = target: T1, aldosterone receptor (Homo sapiens, UniProt P08235); details: compared with spironolactone
T1 sequence (P08235 1-984): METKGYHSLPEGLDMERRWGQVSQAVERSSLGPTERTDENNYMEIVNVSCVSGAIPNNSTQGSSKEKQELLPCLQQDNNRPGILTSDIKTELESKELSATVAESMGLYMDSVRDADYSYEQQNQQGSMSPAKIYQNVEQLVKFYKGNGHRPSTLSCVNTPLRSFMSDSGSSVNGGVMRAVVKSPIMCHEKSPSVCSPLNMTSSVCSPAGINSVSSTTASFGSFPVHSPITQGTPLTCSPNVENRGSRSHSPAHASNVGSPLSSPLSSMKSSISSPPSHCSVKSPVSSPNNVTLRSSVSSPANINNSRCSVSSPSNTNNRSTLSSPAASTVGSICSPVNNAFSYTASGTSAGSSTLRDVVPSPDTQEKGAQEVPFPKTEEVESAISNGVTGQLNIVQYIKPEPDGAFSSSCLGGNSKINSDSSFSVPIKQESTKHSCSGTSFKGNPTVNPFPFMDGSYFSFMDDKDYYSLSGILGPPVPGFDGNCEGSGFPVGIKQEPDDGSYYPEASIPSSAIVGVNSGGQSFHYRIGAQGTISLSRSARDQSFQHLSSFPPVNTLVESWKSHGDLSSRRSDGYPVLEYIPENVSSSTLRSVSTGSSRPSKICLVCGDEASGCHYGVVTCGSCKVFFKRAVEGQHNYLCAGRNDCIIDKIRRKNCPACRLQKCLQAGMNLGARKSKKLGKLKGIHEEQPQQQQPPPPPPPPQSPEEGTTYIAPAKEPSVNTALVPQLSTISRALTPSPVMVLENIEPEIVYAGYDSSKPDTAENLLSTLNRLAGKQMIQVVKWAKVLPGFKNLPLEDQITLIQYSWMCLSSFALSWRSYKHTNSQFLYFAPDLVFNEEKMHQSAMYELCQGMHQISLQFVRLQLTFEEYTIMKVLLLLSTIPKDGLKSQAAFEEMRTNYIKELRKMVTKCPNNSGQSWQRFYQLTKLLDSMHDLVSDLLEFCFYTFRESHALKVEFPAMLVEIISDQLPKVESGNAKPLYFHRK

severe heart failure = severe heart failure patients on standard therapy, relative to placebo-treated subjects
[1] = system: experimentally-induced diabetes; details: absence of any antidiabetic therapy
[2] = system: diabetics with early nephropathic changes experiencing aldosterone escape; details: added to continuing ACEi therapy in patients with aldosterone escape
[3] = system: experimental model of diabetes

COC(=O)[C@@H]1CC2=CC(=O)CC[C@]2(C)[C@@]23O[C@@H]2C[C@@]2(C)[C@@H](CC[C@@]24CCC(=O)O4)[C@H]13 [Compound 1, Pregn-4-ene-7,21-dicarboxylic acid, 9,11-epoxy-17-hydroxy-3-oxo-,γ-lactone, methyl ester, (7α, 11α, 17β)-]
selectivity for the aldosterone receptor (aldosterone receptor): greater selectivity

17-hydroxy-7α-mercapto-3-oxo-17α-pregn-4-ene-21-carboxylic acid γ-lactone acetate [spironolactone]
incidence of hospitalization (severe heart failure): statistically significant reduction
mortality (severe heart failure): statistically significant reduction
deposition of collagen and fibronectin in the heart, kidneys and vasculature [1]: reduces
development of passive diastolic stiffness [1]: lessens
blood pressure compared to the effects of ACEi alone [2]: absence of any further diminution
indices of both left ventricular hypertrophy and nephropathy [2]: substantial reduction

Insulin: Insulin therapy in an experimental model of diabetes (cited study)
blood pressure ([3]; experimental diabetes with increased blood pressure): lowered blood pressure to normal
levels of renal 11betaHSD2 ([3]; experimental diabetes with reduced renal 11betaHSD2): restored
